From patent US8175815B2, “Method for assessing absorption properties of low solubility compounds” (F. Hoffmann-La Roche AG, priority 2006, dated 2012)
Read-outs that look alike come from different tables or passages of the source.

How the values were obtained:
[1] = equilibrium solubility-pH, direct-UV microtitre plate (μSOL Evolution) with and without excipients; details: for solubility at 18 h / pKa at 18 h: aqueous universal buffer (pION); for solubility at 18 h: 25 °C, kinetic from dmso stock; for pKa at 18 h: saturated drug suspension, pKa^APP ± SD
[2] = PAMPA, 30 min, 50 μM
[3] = Double-Sink PAMPA permeability with and without excipients
[4] = Excipient Effect: receiver UV AUC ratio in Double-Sink PAMPA with saturated donor (second embodiment); assay type: in vitro ADME; details: pH 5.0; receiver AUC with excipient / without excipient
Method: The compounds are presented as DMSO solutions with a concentration of about 10 mM. They are further diluted in a universal aqueous buffer and adjusted to pH 5.0, 6.2, and 7.4 with 0.5 M NaOH. The background amount of DMSO in the aqueous solution is 0.5% v/v. Most of the compounds are insoluble in water, where they form saturated solutions with precipitation present. The calculated concentration of the compounds in the buffer is about 50 μM, but because of precipitation, the actual concentrations in the aqueous media must be lower than that, and are unknown. Saturated (non-filtered) solutions are transferred to the donor compartment of the PAMPA sandwich pre-loaded with magnetic stirrers. The filter of the PAMPA filter plate (the acceptor compartment of the PAMPA sandwich) is covered with GIT-lipid and filled with acceptor sink buffer (ASB). […]
Thus, it's not surprising that the absorption behavior for this compound at pH 5.0 is governed by the permeability and that the presence of the excipient in the donor compartment decreases the permeability of Butacaine. The second embodiment of the method of the invention allows detection of this behavior without separate measurements of the solubility and permeability constants, but by simple comparison of the compound concentrations (UV absorbance) in the receiver compartments.

[5] = PAMPA
[6] = 18 h
physchem [7] = experiment: physchem
[8] = dogs, gel caps, 200 mg/kg; cited from earlier work
physchem [9] = experiment: physchem; remark: listed apart in the source
[10] = cited from earlier work

Work on `CCCCN(CCCC)CCCOC(=O)c1ccc(N)cc1` [butacaine] yielded a solubility at 18 h ([1]; aqueous with cosolvent or surfactant or cyclodextrin) of 152 µg/mL, a solubility at 18 h ([1]; pH 5, aqueous buffer) of over 50 µM and a pKa at 18 h ([1]; apparent ionization constant in saturated solution, excipient none) of 8.8 ± 0.2. The pKa at 18 h ([1]; apparent ionization constant, excipient 3 mM NaTC) was 8.9 ± 0.2, the pKa at 18 h ([1]; apparent ionization constant, excipient 15 mM NaTC) was 8.5 ± 0.1 and the pKa at 18 h ([1]; apparent ionization constant, excipient 0.1M KCl) was 8.3 ± 0.3. The pKa at 18 h ([1]; apparent ionization constant, excipient 0.2M KCl) was 8.6 ± 0.1, the pKa at 18 h ([1]; apparent ionization constant, excipient 1% HP-b-CD) was 8.1 ± 0.1 and the pKa at 18 h ([1]; apparent ionization constant, excipient 1% NMP) was 8.5 ± 0.1. The pKa at 18 h ([1]; apparent ionization constant, excipient 1% PEG400) was 8.5 ± 0.1, the pKa at 18 h ([1]; apparent ionization constant, excipient 1% PG) was 8.2 ± 0.1 and the pKa at 18 h ([1]; apparent ionization constant, excipient 5% PEG400) was 8.5. For the same compound, the pKa at 18 h ([1]; apparent ionization constant, excipient 5% PG) was 8.5 ± 0.2, the pKa at 18 h ([1]; apparent ionization constant, excipient […] HP-b-CD) was 8.5 ± 0.1 and the pKa at 18 h ([1]; apparent ionization constant, excipient […] NMP) was 8.8 ± 0.1. The pKa at 18 h ([1]; apparent ionization constant, excipient […] PEG400) was 8.5, the pKa at 18 h ([1]; apparent ionization constant, excipient […] PG) was 8.8 ± 0.1 and the “So ± SD” value ([1]; excipient 3 mM NaTC) was 3.1 ± 1.6 µg/mL. For the same compound, the “So^APP ± SD” value ([1]; excipient 3 mM NaTC) was 50 ± 10 µg/mL, the “So ± SD” value ([1]; excipient 15 mM NaTC) was 2.3 ± 0.4 µg/mL and the “So^APP ± SD” value ([1]; excipient 15 mM NaTC) was 96 ± 4 µg/mL. For the same compound, the “So ± SD” value ([1]; excipient 0.1M KCl) was 1.3 ± 0.8 µg/mL, the “So^APP ± SD” value ([1]; excipient 0.1M KCl) was 83 ± 17 µg/mL and the “So ± SD” value ([1]; excipient 0.2M KCl) was 2.5 ± 0.2 µg/mL. For the same compound, the “So^APP ± SD” value ([1]; excipient 0.2M KCl) was 78 ± 2 µg/mL, the “So ± SD” value ([1]; excipient 1% HP-b-CD) was 1.5 ± 0.4 µg/mL and the “So^APP ± SD” value ([1]; excipient 1% HP-b-CD) was 141 ± 7 µg/mL. The “So ± SD” value ([1]; excipient 1% NMP) was 1.9 ± 0.5 µg/mL, the “So^APP ± SD” value ([1]; excipient 1% NMP) was 71 ± 5 µg/mL and the “So ± SD” value ([1]; excipient 1% PEG400) was 2.8 ± 0.4 µg/mL. For the same compound, the “So^APP ± SD” value ([1]; excipient 1% PEG400) was 107 ± 2 µg/mL, the “So ± SD” value ([1]; excipient 1% PG) was 0.9 ± 0.2 µg/mL and the “So^APP ± SD” value ([1]; excipient 1% PG) was 69 ± 5 µg/mL. The “So ± SD” value ([1]; excipient 5% PEG400) was 2.8 µg/mL, the “So^APP ± SD” value ([1]; excipient 5% PEG400) was 107 µg/mL and the “So ± SD” value ([1]; excipient 5% PG) was 1.5 ± 0.5 µg/mL. For the same compound, the “So^APP ± SD” value ([1]; excipient 5% PG) was 66 ± 9 µg/mL, the “So ± SD” value ([1]; excipient […] HP-b-CD) was 2.0 ± 0.3 µg/mL and the “So^APP ± SD” value ([1]; excipient […] HP-b-CD) was 79 ± 4 µg/mL. The “So ± SD” value ([1]; excipient […] NMP) was 2.1 ± 0.5 µg/mL, the “So^APP ± SD” value ([1]; excipient […] NMP) was 47 ± 3 µg/mL and the “So ± SD” value ([1]; excipient […] PEG400) was 3.6 µg/mL. The “So^APP ± SD” value ([1]; excipient […] PEG400) was 151 µg/mL, the “So ± SD” value ([1]; excipient […] PG) was 2.3 ± 0.5 µg/mL and the “So^APP ± SD” value ([1]; excipient […] PG) was 51 ± 4 µg/mL. For the same compound, the “So ± SD” value ([1]; excipient none) was 1.9 ± 0.7 µg/mL, the “So^APP ± SD” value ([1]; excipient none) was 40 ± 6 µg/mL and the “So^APP ± SD” value ([1]; excipient none, listed as Butacaine) was 40 µg/mL. For the same compound, the “salt limit (sdiff 3-4 approximation)” value ([1]; three orders of magnitude above excipient-free intrinsic solubility) was 39.8 mg/mL, the “PABL 0 mM NaTC” value [2] was 713 and the “PABL 3 mM NaTC” value [2] was 954. For the same compound, the “PABL 15 mM NaTC” value [2] was 13, the “refined ABL thickness” value [2] was “exceeding 75 μm” and the “MW*/MW” value ([3]; 3 mM NaTC (second value)) was 2. For the same compound, the “MW*/MW” value ([3]; 15 mM NaTC (third value)) was 30000, the “MW*/MW” value ([3]; apparent/true molecular weight, 40 μm ABL assumed, 0 mM NaTC (first value)) was 4 and the “excipient Effect” value [4] was under 1. For the same compound, the “net flux effect due to 1% HP-β-CD” value ([5]; pH 5) was “loses at all pH values”.
With `COc1ccc(Cl)cc1C(=O)NCCc1ccc(S(=O)(=O)NC(=O)NC2CCCCC2)cc1` [glybenclamide] the “n ± SD” value [6] was 1.1 ± 0.1, the pKa at 18 h (physchem [7]; negative shift in the apparent pKa) was 1.6 and the pKa at 18 h (physchem [7]; pKa^APP ± SD) was 4.6 ± 0.1. The “Cmax +HP-β-CD” value [8] was 610 ng/mL, the Cmax no excip. [8] was 83.9 ng/mL and the “Tmax +HP-β-CD” value [8] was 2.5 h. For the same compound, the Tmax no excip. [8] was 4.5 h, the “average flux gain factor” value ([5]; pH 5) was 3.1 and the flux increase factor ([5]; pH 5) was 20.1. For the same compound, the flux increase factor ([5]; pH 6.2) was 4.3, the flux decrease factor ([5]; pH 7.4) was 3 and the pKa (physchem [9]) was 5.75 ± 0.15.
For hydroxypropyl-β-cyclodextrin [HP-β-CD], the solubility [10] is listed as 450000 µg/mL.
